According to PMC11758220, “Identification of a Privileged Scaffold for Inhibition of Sterol Transport Proteins through the Synthesis and Ring Distortion of Diverse, Pseudo-Natural Products” (ACS Central Science, 2025):

Experiments:
Aster-A = target: T1, Aster-A (Homo sapiens, UniProt Q96CP6); assay: Microplate-based cholesterol transfer assay between liposomes (FRET); assay type: biochemical; conditions: Aster-A 125 nM, compound 10 μM, FRET with Rh-DHPE
T1 construct: Aster-A(359-547); GST (PreScission-cleavable) (N, cleaved yes); made in house; host or cells: E. coli OverExpress C41
T1 sequence (Q96CP6 359-547): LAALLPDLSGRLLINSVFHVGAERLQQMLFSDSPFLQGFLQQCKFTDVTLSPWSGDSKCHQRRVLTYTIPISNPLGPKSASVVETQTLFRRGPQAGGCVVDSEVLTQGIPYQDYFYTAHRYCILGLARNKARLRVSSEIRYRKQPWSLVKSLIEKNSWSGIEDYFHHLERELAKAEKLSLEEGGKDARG

ORP1 = target: T2, ORP1 (Homo sapiens, UniProt Q9BXW6); assay: Effect on intrinsic protein fluorescence, ORP1; conditions: protein 1 µM, excitation 280 nm
T2 construct: ORP1(534-950); host or cells: E. coli BL21(DE3)
T2 sequence (Q9BXW6 534-950): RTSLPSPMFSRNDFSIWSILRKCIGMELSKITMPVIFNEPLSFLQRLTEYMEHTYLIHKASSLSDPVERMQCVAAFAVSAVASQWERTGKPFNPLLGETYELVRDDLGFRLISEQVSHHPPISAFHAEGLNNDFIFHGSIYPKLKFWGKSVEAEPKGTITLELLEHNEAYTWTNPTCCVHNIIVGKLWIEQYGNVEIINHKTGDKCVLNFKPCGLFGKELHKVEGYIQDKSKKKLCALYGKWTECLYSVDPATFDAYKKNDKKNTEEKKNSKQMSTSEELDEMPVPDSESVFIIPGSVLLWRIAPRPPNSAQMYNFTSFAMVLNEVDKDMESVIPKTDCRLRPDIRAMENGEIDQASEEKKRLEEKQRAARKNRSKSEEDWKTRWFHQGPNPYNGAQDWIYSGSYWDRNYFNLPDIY
Description: (§1) Effect of spirooxepinoindoles on intrinsic protein fluorescence
(§2) Figure S12: Spirooxepinoindoles 21a and 15f affect intrinsic protein fluorescence in dose-dependent fashion:
(§3) Respective proteins (1 µM) were incubated with the compounds at different doses. Proteins were excited at 280 ± 10 nm and fluorescence spectra were measured from 315 ± 20 nm to 600 ± 20 nm with a step size of 2 nm. A) STARD1 and 21a. B) ORP1 and 21a. C) ORP2 and 21a. D) ORP2 and 15f.
(§4) (1 picture or pasted object on this page, not shown here)
(§5) Superdex 75 pg (Cytiva) using an ÄKTA Explorer (Cytiva) in buffer containing 10 mM Tris -HCl, pH 8, 150 mM NaCl, 5 % glycerol and 2 mM DTT.
(§6) Fluorescence intensity and polarisation
(§7) Fluorescence intensity and polarisation (FP) experiments were performed in a buffer containing 20 mM HEPES pH 7.5, 300 mM NaCl, 0.01 %v/v Tween-20, 0.5% glycerol and 2 mM DTT in a final volume of 30 µl in black, flat-bottom, non-binding 384-well plates (Corning). All compounds were dispensed using the LabCyte Echo 550 Liquid handler. […] For competition experiments, 20 nM 22-NBD-cholesterol or 80 nM 25-NBD-cholesterol was mixed with protein and incubated with desired concentrations of screening compounds (Table S4) The fluorescence polarisation signal was measured using a Spark Cyto multimode microplate reader (Tecan) with filters set at 485 ± 20 nm for excitation and at 535 ± 20 nm for emission. […]

STARD1 = target: T3, STARD1 (Homo sapiens, UniProt P49675); assay: Effect on intrinsic protein fluorescence, STARD1; conditions: protein 1 µM, excitation 280 nm
T3 construct: STARD1(66-284); made in house; host or cells: E. coli BL21(DE3)
T3 sequence (P49675 66-284): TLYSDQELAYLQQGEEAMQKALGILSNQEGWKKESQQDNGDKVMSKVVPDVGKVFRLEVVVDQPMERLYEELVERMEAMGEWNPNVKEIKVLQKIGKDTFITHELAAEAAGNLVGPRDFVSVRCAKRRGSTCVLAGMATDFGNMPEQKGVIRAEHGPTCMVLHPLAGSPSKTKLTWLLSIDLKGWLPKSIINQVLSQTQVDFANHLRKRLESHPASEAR
Description: as §1, §2, §3, §4, §5, §6, §7

STARD3 = target: T4, STARD3 (Homo sapiens, UniProt Q14849); design: method as in Depta et al.[43]; conditions: data reproduced; ref Depta et al.[43]; read-out: STARD3 Kd,app (DSF); cited from earlier work
T4 construct: STARD3(216-444); made in house; host or cells: E. coli BL21(DE3)
T4 sequence (Q14849 216-444): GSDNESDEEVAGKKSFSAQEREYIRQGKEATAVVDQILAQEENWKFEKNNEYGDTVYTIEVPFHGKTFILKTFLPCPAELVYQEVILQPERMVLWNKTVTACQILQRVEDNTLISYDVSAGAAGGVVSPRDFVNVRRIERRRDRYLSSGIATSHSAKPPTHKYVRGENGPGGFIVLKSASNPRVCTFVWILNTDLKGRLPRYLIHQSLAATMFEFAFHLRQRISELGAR

CC12CCC3CC1CCC21C(=Nc2ccc(N4CCOCC4)cc21)O3 (single isomer, unassigned; (-)) [(−)-19a]
Inhibition of Aster-A mediated transport of 23-BODIPY-cholesterol between synthetic liposomes (Aster-A): inhibited

C[C@]12CC[C@@H]3C[C@H]1CC[C@@]21C(=Nc2ccc(-c4ccccc4)cc21)O3 [Compound 21a]
Quenching of intrinsic fluorescence of ORP1 (ORP1): dose-dependently quenches
Quenching of intrinsic fluorescence of STARD1 (STARD1): dose-dependently quenches

CCN(CC)CCO[C@H]1CC[C@@]2(C)C(=CC[C@@H]3[C@@H]2CC[C@]2(C)C(=O)CC[C@@H]32)C1 [Compound U18666A, reference compound]
Kd (STARD3): > 30 µM
